In patent US20250144032A1, “POLY(BETA-AMINO ESTER) MICROPARTICLES FOR MICRONUTRIENT FORTIFICATION” (Massachusetts Institute of Technology, priority 2021, published 2025):

Experiment: Boiling stability of micronutrients in water at 100 °C (simulated cooking)
Format: physicochemical
Protocol: To evaluate the effects on VA stabilization, VA (10% wt) was encapsulated with MPs fabricated from PAE_C, PAE_D, or PAE_E. The resulting MPs were tested in boiling water for 2 hours.
The boiling stability of micronutrients in PAE MP was studied in water at 100° C. At each time point, samples were lyophilized to obtain the boiled product.
High-performance liquid chromatography (HPLC), inductively coupled plasma-optical emission spectrometer (ICP-OES), and colorimetric assay kits were used for micronutrient quantification.

VA recovered after boiling for 0.5 h: less than 20%
SMILES: CCCCCCCCCCCCCCCC(=O)OC/C=C(C)/C=C/C=C(C)/C=C/C1=C(C)CCCC1(C)C [VA, retinyl palmitate]
